Data on seven compounds can be found in patent US4425432A (priority 1981, dated 1984).

Structures are written as SMILES. Like-named read-outs stand apart in the source and are kept apart here.

As usually defined, the inhibition is the relative decrease from the control value, in per cent.

Experiment [1] deals with Clostridium pasteurianum. Nature of the experiment: microbe, parasite or virus in culture. It is filed as cell-based.
For experiment [2], the system named is Marburg strain. Nature of the experiment: microbe, parasite or virus in culture. It is filed as cell-based, Butyribacterium methylotrophicum.
Where [3] appears, read: Clostridium pasteurianum, 1 h, read-out: % Inhibition of growth, Clostridium pasteurianum.
The mark [4] stands for this setting: [Butyribacterium] methylotrophicum, 192 h, read-out: % Inhibition of growth, Marburg strain.

Consider `CN(C)C1C(=O)C(C(N)=O)=C(O)C2(O)C(=O)C3=C(O)c4c(O)cccc4C(C)(O)C3CC12` (stereo not shown) [Tetracycline], for which the inhibition at 100 µg/mL in experiment [1] (setting [3]) and in experiment [2] (setting [4]) was 100% throughout.
Regarding `CC1(C)S[C@@H]2[C@H](NC(=O)Cc3ccccc3)C(=O)N2[C@H]1C(=O)O` [Penicillin], the inhibition at 100 µg/mL in experiment [1] (setting [3]) and in experiment [2] (setting [4]) was 100% in each case.
In the case of `O=C(N[C@H](CO)[C@H](O)c1ccc([N+](=O)[O-])cc1)C(Cl)Cl` [Chloramphenicol], the inhibition at 100 µg/mL in experiment [1] (setting [3]) and in experiment [2] (setting [4]) was 100% throughout.
With `[H]/N=C(/N)N[C@H]1[C@H](O)[C@@H](O)[C@H](O[C@@H]2O[C@@H](C)[C@](O)(C=O)[C@H]2O[C@@H]2O[C@@H](CO)[C@H](O)[C@@H](O)[C@@H]2NC)[C@@H](N/C(N)=N\[H])[C@@H]1O` [Streptomycin], the inhibition at 100 µg/mL amounted to 100% in experiment [1] (setting [3]) and 80% in experiment [2] (setting [4]).
Regarding `[Cl-].[Na+]` [Sodium chloride], the “% Inhibition of growth, Clostridium pasteurianum” value in experiment [1] (2%) came out at 73%. Further, in experiment [2], the “sensitivity of the Marburg strain (B. methylotrophicum) to antibiotics and inhibitors, in words” value was “noticeably more tolerant”. Moreover, the “% Inhibition of growth, Marburg strain” value in experiment [2] (2%) worked out at 0%.
In the case of `[N-]=[N+]=[N-]` [Sodium azide], the inhibition at 50 µg/mL in experiment [1] (setting [3]) was 100%; in experiment [2] (setting [4]), 0%. Moreover, the inhibition at 250 µg/mL in experiment [1] (setting [3]) is 93%; in experiment [2] (setting [4]), 0%. In addition, the “sensitivity of the Marburg strain (B. methylotrophicum) to antibiotics and inhibitors, in words” value in experiment [2] is reported as “noticeably more tolerant”.
On to `O=O` [Oxygen], for which the “% Inhibition of growth, Clostridium pasteurianum” value in experiment [1] worked out at 100%. In addition, in experiment [2], the “% Inhibition of growth, Marburg strain” value was found to be 100%; the “sensitivity of the Marburg strain (B. methylotrophicum) to antibiotics and inhibitors, in words” value is recorded as “effective inhibitor of growth”.
